The record followed here is patent US6662039B2, “Optical probing of neuronal connections with fluorescent indicators” (The Trustees of Columbia University in the City of New York, priority 1999, dated 2003).

This assay relates to neurons in visual cortex brain slices. Put plainly: Optical probing of cortical brain slices made more excitable by channel/receptor blockers. The format is cell-based, mouse. To be noted: for effect on number of possible postsynaptic targets (follower cells): bath application to fura-2 AM loaded mouse cortical slice, trigger cell stimulated; for epileptiform events in imaged neurons: most or all imaged neurons show action-potential induced increases in [Ca2+]i. The source says:
This method consist of (i) loading (staining) populations of neurons in brain slices with fluorescent indicators such as fura-2 AM and (ii) imaging dozens of loaded cells during whole-cell stimulation of a particular neuron (the “trigger” cell). On-line analysis is used to determine if any other neurons (the “follower” cells) show a calcium transient time-locked to the firing of the “trigger” cell. After detection, a chosen “follower” cell is patched and a similar experiment is repeated. Histological processing is carried out on the fixed specimens. A detailed explanation of the experiment and some representative results follows.
Brain slices are made from the primary visual cortex of postnatal day (PND) 12-23 C57BL6 mice. Mice are anesthetized with Ketamine/Xylazine (120 mg/kg, 10 mg/kg respectively). Animals are decapitated and the brain is quickly removed and placed into cold ACSF (126 mM NaCl, 3 mM KCl, 26 mM NaHCO3, 1 mM NaH2PO4, 2 mM CaCl2, 2 mM MgSO4, 10 mM Dextrose, bubbled with 95% O2/5% CO2). Coronal slices, 300-400 μm thick, are cut using a vibratome (TPI) and are incubated at 35° C. for 30 minutes in a submerged slice chamber. Slices are then incubated at room temperature (˜25° C.) for up to 12 hours.
After loading, slices are placed in a submerged recording chamber mounted on the stage of an upright microscope (BX50WI, Olympus). All experiments are done at room temperature. Fluorescent images of fura-2 loaded neurons are taken with a cCCD camera (Micromax, Princeton Instruments) equipped with a frame transfer chip (EEV 512, Kodak) or an hexagonal photodiode array with 464 pixels (PDA, Universal Imaging). To maximize the number of imaged neurons a 20×/0.5 NA water immersion objective (Olympus) is used. Image acquisition is typically 25 msec/frame and each pixel is digitized at 12 bits. Camera images are acquired, stored and analyzed using a Macintosh 7100 (Apple Computers, Cupertino, Calif.) computer and IPLab software (Signal Analytics). Signals from the photodiodes are amplified, sampled at 1.6 KHz and analyzed using Neuroplex (Universal Imaging). For imaging of the calcium transients a 380 nm excitation, a 395 nm dichroic and a 510 emission filter (Chroma) are used. Also imaged is each neuron at the isosbestic excitation of 365 nm during every experiment to assess the approximate [Ca^2+]i and therefore monitor the health of the cells. The 365 nm images are used to estimate the intracellular concentration of fura-2, using the fluorescence of the patched cell (which has a known concentration of fura-2) as a calibration. For most neurons, after correcting for background fluorescence and focus, an intracellular concentration of indicator of approximately 40-50 μM was estimated. These values, obtained from experiments with good loading at PND 12-23, obviously depend crucially on many factors that affect loading, such as age, incubation time and health of the slices. Changes in fluorescence in multiple cells were analyzed with a program written in IPLab. The fluorescence change over time is defined as ΔF/F=(F0−F1)/(F0) and, for the analysis of the AM loaded cells fluorescence change was defined as ΔF/F=((F0−-B0)−(F1−B1))/(F0−B0), expressed in %, where F1 and B are fluorescence in the somata and background fluorescence, respectively, at any given timepoint, and F0 and B0 are fluorescence and background at the beginning of the experiment.
To maximize the effect of the stimulation of the trigger cell, different methods of enhancing synaptic release and also of making postsynaptic cells more excitable have been experimented with. Currently used is 3 mM [Ca^2+]e in our ACSF (artificial cerebrospinal fluid) because high [Ca^2+]e decreases synaptic failures and, by increasing the [Ca^2+] gradient between the inside and outside of the cell, it also produces bigger action-potential induced calcium signals. […]

As for `CN1CCc2cc3c(cc2[C@H]1[C@@H]1OC(=O)c2c1ccc1c2OCO1)OCO3` [Bicuculine], the “effect on number of possible postsynaptic targets (follower cells)” value (“effect on number … (follower cells)” for short) is reported as “increases the number of possible postsynaptic targets” and the “epileptiform events in imaged neurons” value is “produces spontaneous or evoked epileptiform events”.

On to `CC[N+](CC)(CC)CC` [TEA], for which the “effect on number … (follower cells)” value was “increases the number of possible postsynaptic targets” and the “epileptiform events in imaged neurons” value was “produces spontaneous or evoked epileptiform events”.

Take `Nc1ccncc1` [4-AP]: the “effect on number … (follower cells)” value was “increases the number of possible postsynaptic targets” and the “epileptiform events in imaged neurons” value is “produces spontaneous or evoked epileptiform events”.
